Measured values as given in US20120108624A1, “TREATMENT OF DYSKINESIA RELATED DISORDERS” (priority 2009, published 2012).
Structures can show the parent of a compound that is named as a salt.

Experiments:
[1] = tested on: rats with unilateral 6-OHDA lesions; experiment: 6-OHDA rat model (rotation response); format: in vivo; conditions: rotation in unilateral 6-OHDA rats; for D1/D2 ratio: MED and MED to overcome Nemonapride block
Source text: Dopamine agonists can have activity at either the D1 receptors, the D2 receptors, or both. The rotation response in rats with unilateral 6-OHDA lesions can be used to assess compounds for their ability to stimulate both receptor types and induce rotation (Ungerstedt and Arbuthnott, Brain Res., 1970, 24, 485; Setler, et al. Eur. J. Pharmacol., 1978, 50(4), 419; and Ungerstedt, et al. “Advances in Dopamine Research” (Kohsaka, Ed.), Pergamon Press, 1982, Oxford, p. 219). 6-OHDA (6-hydroxydopamine) is a neurotoxin used by neurobiologists to selectively kill dopaminergic neurons at the site of injection in the brain in experimental animals. In the 6-OHDA model, the nigrostraital dopamine cells are destroyed on one side of the brain (unilateral) by injecting 6-OHDA into the median forebrain bundle, located in front of the substantia nigra. This unilateral injection combined with stimulation by dopamine agonists such as apomorphine will induce rotation behaviour as only one side of the brain is stimulated. Experiments consist of determining a minimum effective dose (MED) to induce rotation for the compound in question. Once a MED has been determined, a second experiment is performed to determine the MED of the compound to overcome Nemonapride block (MEDNemonapride). Nemonapride is a D2 antagonist that blocks the D2 receptor, therefore any observed rotations would be dependent upon activity at the D1 receptor. Finally, once the MEDNemonapride is known a third experiment is run using the MEDNemonapride dose and observing the effect of the D1 antagonist, SCH 23390 alone, the D2 antagonist, Nemonapride alone and finally, the effect of combined treatment with SCH 23390 and Nemonapride. […] This model was validated using apomorphine as the proof-of-principle compound for mixed D1/D2 agonists.
Dopamine agonists can have activity at either the D1 receptors, the D2 receptors, or both. The rotation response in rats with unilateral 6-OHDA lesions can be used to assess compounds for their ability to stimulate both receptor types and induce rotation (Ungerstedt and Arbuthnott, Brain Res. 24, 485 (1970); Setler, et al., Eur. J. Pharmacol., 50(4), 419 (1978); and Ungerstedt, et al., “Advances in Dopamine Research” (Kohsaka, Ed.), Pergamon Press, 1982, Oxford, p. 219). 6-OHDA (6-hydroxydopamine) is a neurotoxin used by neurobiologists to selectively kill dopaminergic neurons at the site of injection in the brain in experimental animals. In the 6-OHDA model the nigrostraital dopamine cells are destroyed on one side of the brain (unilateral) by injecting 6-OHDA into the median forebrain bundle, located in front of the substantia nigra. […] Once a MED has been determined, a second experiment is performed to determine the MED of the compound to overcome Nemonapride block (MEDNemonapride). […]

[2] = tested on: Sprague Dawley rats with unilateral 6-OHDA lesions; experiment: Induction of dyskinesia model with naive 6-OHDA rats (AIMS); format: in vivo, rat; conditions: once daily s.c. for 14 days, scored up to day 12
Protocol: Twenty male Sprague Dawley rats with unilateral 6-OHDA lesions were used to test induction of dyskinesia by compound 10 (administered subcutaneously; n=7; group 1) compared to L-DOPA/benserazide (6 mg/kg / 15 mg/kg subcutaneously; n=7; group 2) and apomorphine (1 mg/kg subcutaneously; n=6; group 3). Benserazide is a DOPA decarboxylase inhibitor which is unable to cross the blood-brain barrier; it is used to prevent metabolism of L-DOPA to dopamine outside the brain. Three weeks after 6-OHDA surgery, the animals were tested for their rotation response induced by 2.5 mg/kg amphetamine, which induces ipsilateral circling (amphetamine increases the level dopamine in the brain via the intact neurons on the unlesioned side causing the animals to rotate in the opposite direction as compared to their response to direct agonists such as L-DOPA and apomorphine that act predominantly on the lesioned side of the brain). […] Rats where then randomly allocated to the three treatment groups balancing the groups for the animals' rotation response on amphetamine.
Rats received drug for 14 consecutive days and were scored on days 1, 2, 3, 4, 5, 8, 10 and 12. […] Following this experiment all rats were given subcutaneous injections of compound 10 from day 15-19 in order to determine how Example I influenced the severity of dyskinesia seen in the apomorphine and L-DOPA groups. Dykinesia scoring was performed on day 19 of the experiment (corresponding to 5 days on compound 10).

[3] = Conversion into the active metabolite upon in-vivo administration
[4] = tested on: 'parkinsonian' rats (6-OHDA rats); experiment: Dyskinesia rat model, Example 3 (AIMs, test drug vs. L-DOPA/benserazide); format: in vivo
Protocol: A rat dyskinesia model reported in the literature (Lundblad, et al., Eur. J Neurosci., 2002, 15, 120) was used to examine the effects of the active metabolite vs. L-DOPA/benserazide with respect to dyskinesias that were assessed as abnormal involuntary movements (AIMs) in ‘parkinsonian’ rats.
0-180 min. Animals were scored for dyskinesias.
(§1) At days 1, 3, 5, 8 and 12, animals were scored according to AIM-scoring by recording dyskinesias using the Abnormal Involuntary Movement Scale (AIMS) as described previously (Lundblad, et al., Eur. J Neurosci., 2002, 15, 120). Days 15-26: Group A animals were treated with the test drug (as group B) instead of L-DOPA/benserazide. Day 15, 16, 17, 19, 22, 24 and 26: Animals scored according AIM-scoring.

MPTP treated marmosets = experiment: Anti-Parkinsonian effects in MPTP-treated common marmosets; format: in vivo, common marmoset; conditions: dosed p.o.
Protocol: (§2) The experiments were conducted using 6 MPTP treated marmosets (2.0 mg/kg daily for up to 5 consecutive days dissolved in sterile 0.9% saline solution). All the animals had previously been treated with L-DOPA (12.5 mg/kg p.o., plus carbidopa 12.5 mg/kg p.o.) administered daily for up to 30 days in order to induce dyskinesia. […] Domperidone was administered 60 min before any of the test compounds. Domperidone is an anti-dopaminergic drug that suppresses nausea and vomiting. Locomotor Activity was assessed using test cages that are comprised of 8 photo-electric switches comprised of 8 infra-red beams which are strategically placed in the cage and interruption of a beam is recorded as one count. […] The assessment of motor disability was performed by a trained observer blinded to the treatment.
as §2, with “antidopaminergic” for “anti-dopaminergic”
as §2, with “compounds.” for “compounds. Domperidone is an anti-dopaminergic drug that suppresses nausea and vomiting.”

[5] = tested on: rats with unilateral 6-OHDA lesions; experiment: Dyskinesia profile in rats with unilateral 6-OHDA lesions (summary statements); format: in vivo, rat; conditions: for induction of dyskinesias compared with L-DOPA and apomorphine / reduction of L-DOPA induced dyskinesias compared with D2 agonists (pramipexole): rats with unilateral 6-OHDA lesions
'parkinsonian' rats = experiment: Dyskinesia rat model, Example 4 (AIMs, Compound 12 vs. L-DOPA/Benserazide); format: in vivo
Protocol: A rat dyskinesia model reported in the literature (Lundblad, et al., Eur. J Neurosci., 2002, 15, 120) was used to examine the effects of Compound 12 vs. L-DOPA/Benserazide with respect to dyskinesias that were assessed as abnormal involuntary movements (AIMs) in ‘parkinsonian’ rats.
Throughout the study animals received L-DOPA/Benserazide (6 mg/kg and 15 mg/kg subcutaneous) or Compound 12 (group B) once daily at t=−20 min. 0-180 min. Animals were scored for dyskinesias. Days 1-14: All animals were dosed with L-DOPA/Benserazide (group A) or Compound 12 (group B).
as §1, with “previously.” for “previously (Lundblad, et al., Eur. J Neurosci., 2002, 15, 120).”, “Compound 12” for “the test drug”, “L-DOPA/Benserazide.” for “L-DOPA/benserazide.”

[6] = tested on: mouse model of severe dopamine depletion; experiment: Superiority model (MPTP mice treated with AMPT, motility); format: in vivo; conditions: AMPT 250 mg/kg s.c., last 1 hour of recorded data
Protocol: On the day of the experiment, mice were treated with AMPT (250 mg/kg subcutaneously) and then returned to their home cages for 1.5 hours after which they were placed in individual cages in the motility unit. AMPT (alpha-methyl-p-tyrosine) is a drug that temporarily reduces brain catecholamine activity (in this case especially dopamine levels). […] Various dopaminergic compounds were tested for their ability to reverse the motility deficits produced in this model. […] Benserazide is a DOPA decarboxylase inhibitor which is unable to cross the blood-brain barrier; it is used to prevent metabolism of L-DOPA to dopamine outside the brain.
On the day of the experiment, mice were treated with AMPT (250 mg/kg subcutaneously) and then returned to their home cages for 1.5 hours after which they are placed in individual cages in the motility unit. AMPT (alpha-methyl-p-tyrosine) is a drug that temporarily reduces brain catecholamine activity (in this case especially dopamine levels). […] Various dopaminergic compounds are tested for their ability to reverse the motility deficits produced in this model. […] Benserazide is a DOPA decarboxylase inhibitor which is unable to cross the blood-brain barrier; it is used to prevent metabolism of L-DOPA to dopamine outside the brain.
On the day of the experiment, mice were treated with AMPT (250 mg/kg subcutaneously) and then returned to their home cages for 1.5 hours after which they were placed in individual cages in the motility unit. AMPT (alpha-methyl-p-tyrosine) is a drug that temporarily reduces brain catecholamine activity (in this case especially dopamine levels). […] Various dopaminergic compounds were tested for their ability to reverse the motility deficits produced in this model. […] Benserazide is a DOPA decarboxylase inhibitor which is unable to cross the blood-brain barrier; it was used to prevent metabolism of L-DOPA to dopamine outside the brain.

Row | SMILES | dyskinesia scores (AIMS) [2] | conversion into active metabolite (Compound 10) [3] | duration of reversal of motor disability compared to L-DOPA (MPTP treated marmosets) | efficacy compared to L-DOPA (MPTP treated marmosets) | locomotor activity and motor disability (MPTP treated marmosets) | D1/D2 ratio [1] | induction of dyskinesias compared with L-DOPA and apomorphine [5] | reduction of L-DOPA induced dyskinesias compared with D2 agonists (pramipexole) [5] | reversal of motility deficits / restoration of locomotion [6] | further results
1 | CCCN1CCC[C@@H]2Cc3c(ccc(O)c3O)C[C@H]21 [Compound 10, (4aR,10aR)-1-Propyl-1,2,3,4,4a,5,10,10a-octahydro-benzo[g]quinoline-6,7-diol hydrobromide] | about 30 | – | – | – | – | – | – | – | – | duration of action [1]: ca. 18 h
2 | CCCN1CCC[C@@H]2Cc3c(ccc4c3OCO4)C[C@H]21 [Compound 11, (6aR,10aR)-7-n-Propyl-6,6a,7,8,9,10,10a,11-octahydro-1,3-dioxa-7-aza-cyclopenta[a]anthracene hydrochloride] | – | Convert into the Catechol-Containing Active Metabolite | prolonged reversal of motor disability | as efficacious as L-DOPA | dose-related increases in locomotor activity and reversal of motor disability | about 2 | induce less dyskinesias than L-DOPA and apomorphine | reduce L-DOPA induced dyskinesias more effectively than D2 agonists | – | dyskinesia scores (AIMS) ([4]; after eight days of once daily treatment, constant until day 12): 2-4; induction of dyskinesia compared with L-DOPA ([4]; days 1-14): significantly less dyskinesia than L-DOPA; reduction of the dyskinesias induced by L-DOPA ([4]; group A shifted from L-dopa/benserazide to the test drug, days 15-26): able to reduce the dyskinesias induced by L-DOPA; reversal of dyskinesias induced by L-DOPA/benserazide and apomorphine ([5]; rats lesioned with 6-OHDA): reversed dyskinesias
3 | CCCN1CCC[C@@H]2CC3=C(CCCC3=O)C[C@H]21 [Compound 12, (4aR,10aR)-1-n-propyl-2,3,4,4a,5,7,8,9,10,10a-decahydro-1H-benzo[g]quinolin-6-one] | – | Convert into the Catechol-Containing Active Metabolite | prolonged reversal of motor disability | as efficacious as L-DOPA | dose-related increases in locomotor activity and reversal of motor disability | – | induces less dyskinesias than L-DOPA and apomorphine | reduces L-DOPA induced dyskinesias more effectively than D2 agonists | – | dyskinesia scores (AIMS) ('parkinsonian' rats; after eight days of once daily treatment): 10-25; dyskinesia scores (AIMS) after shifting group A from L-DOPA/benserazide ('parkinsonian' rats; compound 12 for 10 days after L-DOPA/benserazide): 30-35; induction of dyskinesia compared with L-DOPA ('parkinsonian' rats; days 1-14): significantly less dyskinesia than L-DOPA; reduction of the dyskinesias induced by L-DOPA ('parkinsonian' rats; group A shifted to compound 12, days 15-26): able to reduce the dyskinesias induced by L-DOPA
4 | N[C@@H](Cc1ccc(O)c(O)c1)C(=O)O [L-DOPA] | about 70 | – | – | – | increased locomotor activity and reversed motor disability | – | – | – | able to reverse motility deficits | –
5 | CN1CCc2cccc3c2[C@H]1Cc1ccc(O)c(O)c1-3 [apomorphine] | about 70 | – | – | – | – | about 3 | – | – | restored locomotion | reversal of motility deficits / restoration of locomotion ([6]; listed as Apomorphine): able to reverse motility deficits
6 | CCCN(CCc1cccs1)[C@H]1CCc2c(O)cccc2C1 [rotigotine, reference compound] | – | – | – | – | – | – | – | – | – | D1 component [1]: could not be observed
